From ChEMBL document CHEMBL5346887, “Design and evaluation of dibenzoazepine-tetrahydroisoquinoline hybrids as potential P-glycoprotein inhibitors against multidrug resistant K562/A02 cells” (Eur J Med Chem, 2023) come the findings set out here.

Active and inactive are the calls of the source. No cut-off for these calls is given here.

In data set [1] the test system is K562/A02. In words: Cytotoxicity against human K562/A02 cells assessed as inhibition of cell growth incubated for 72 hrs by CCK-8 assay. The class given is functional, cell-based. The following applies: K562/A02, 72 h.
The test system of data set [2] is K562/A02. Description: Reversal fold, ratio of ADR IC50 to test compound IC50 for reversal of multi-drug resistance in human K562/A02 cells. The class given is functional.
Data set [3] has as its system K562/A02. In words: Reversal fold, ratio of ADR IC50 to test compound IC50 for reversal of multi-drug resistance in human K562/A02 cells at 0.4 uM. The class given is functional.
Data set [4] relates to K562. Description: cells. The following applies: Homo sapiens, K562, 72 h.
Description: Cytotoxicity against human K562 cells assessed as inhibition of cell growth incubated for 72 hrs by CCK-8 assay
The subject of data set [5] is K562/A02. In words: Antitumor activity against human K562/A02 cells xenografted in BALB/c nude mouse assessed as reduction in tumor volume at 2 mg/kg, ip measured upto 14 days by vernier caliper analysis. The following applies: time <= 14 day. It is filed as functional. (In general: Xenograft models place foreign cells or tissue in a host animal.)
Data set [6] has as its system K562/A02. Description: Reversal of adriamycin resistance in human K562/A02 cells incubated for 48 hrs. The following applies: K562/A02, 48 h. The class given is functional, cell-based.
For data set [7], the system named is K562/A02. Description: Reversal of multi-drug resistance in human K562/A02 cells increase in intracellular Rh123 level incubated for 30 mins by flow cytometry analysis. The class given is functional, cell-based. The following applies: dose 0.5-8 µM.
The test system of data set [8] is K562. In words: Reversal of multi-drug resistance in human K562 cells increase in intracellular Rh123 level at 0.5 to 8 uM incubated for 30 mins by flow cytometry analysis. It is filed as functional, cell-based. The following applies: dose 0.5-8 µM.
Data set [9] deals with K562/A02. Description: Antitumor activity against human K562/A02 cells xenografted in BALB/c nude mouse assessed as reduction in tumor weight at 20 mg/kg, ip measured upto 14 days in presence of ADR by vernier caliper analysis. It is filed as functional, organism-based. The following applies: time <= 14.0 day.
The subject of data set [10] is K562/A02. In words: Antitumor activity against human K562/A02 cells xenografted in BALB/c nude mouse assessed as reduction in tumor volume at 20 mg/kg, ip measured upto 14 days by vernier caliper analysis. The class given is functional. The following applies: time <= 14 day.
In data set [11] the test system is K562/A02. In words: Antitumor activity against human K562/A02 cells xenografted in BALB/c nude mouse assessed as reduction in tumor volume at 20 mg/kg, ip measured upto 14 days in presence of ADR by vernier caliper analysis. The class given is functional. The following applies: time <= 14 day.
Data set [12] concerns the target ATP-dependent translocase ABCB1 (Homo sapiens, UniProt P08183). Description: Binding affinity to p-gp in human K562/A02 cells assessed as increase in thermal stabilization at 50 uM incubated for 1 hr by CETSA analysis. The following applies: k562/a02, 1 h. It is filed as cell-based.
The target in a further data set is Cytochrome P450 3A4 (Homo sapiens, UniProt P08684). Description: Inhibition of CYP3A4 (unknown origin) using luciferin-IPA as substrate preincubated for 1 hr followed by substrate addition and measured after 1 hr by luminometer assay. The class given is ADME.
The subject of data set [13] is K562/A02. In words: Effect on P-gp expression in human K562/A02 cells at 0.5 to 8 uM measured after 24 hrs by Western blot analysis. It is filed as functional, cell-based. The following applies: dose 0.5-8 µM. For orientation: In western blotting, separated proteins are transferred to a membrane and probed.

Sequence of Cytochrome P450 3A4 (P08684 whole entry): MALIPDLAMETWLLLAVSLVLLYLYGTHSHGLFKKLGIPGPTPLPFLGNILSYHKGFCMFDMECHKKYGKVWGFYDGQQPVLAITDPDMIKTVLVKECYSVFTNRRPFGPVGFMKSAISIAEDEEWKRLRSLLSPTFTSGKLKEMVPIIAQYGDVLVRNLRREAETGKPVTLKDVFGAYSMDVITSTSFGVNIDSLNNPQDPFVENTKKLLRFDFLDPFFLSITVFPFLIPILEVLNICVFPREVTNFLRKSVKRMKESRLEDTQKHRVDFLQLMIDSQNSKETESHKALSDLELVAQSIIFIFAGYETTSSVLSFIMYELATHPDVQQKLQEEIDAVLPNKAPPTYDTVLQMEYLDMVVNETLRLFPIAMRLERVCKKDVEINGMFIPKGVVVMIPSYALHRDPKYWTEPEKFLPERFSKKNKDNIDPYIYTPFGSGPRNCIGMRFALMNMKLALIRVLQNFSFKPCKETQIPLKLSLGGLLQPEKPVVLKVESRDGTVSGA
Sequence of ATP-dependent translocase ABCB1 (P08183 whole entry): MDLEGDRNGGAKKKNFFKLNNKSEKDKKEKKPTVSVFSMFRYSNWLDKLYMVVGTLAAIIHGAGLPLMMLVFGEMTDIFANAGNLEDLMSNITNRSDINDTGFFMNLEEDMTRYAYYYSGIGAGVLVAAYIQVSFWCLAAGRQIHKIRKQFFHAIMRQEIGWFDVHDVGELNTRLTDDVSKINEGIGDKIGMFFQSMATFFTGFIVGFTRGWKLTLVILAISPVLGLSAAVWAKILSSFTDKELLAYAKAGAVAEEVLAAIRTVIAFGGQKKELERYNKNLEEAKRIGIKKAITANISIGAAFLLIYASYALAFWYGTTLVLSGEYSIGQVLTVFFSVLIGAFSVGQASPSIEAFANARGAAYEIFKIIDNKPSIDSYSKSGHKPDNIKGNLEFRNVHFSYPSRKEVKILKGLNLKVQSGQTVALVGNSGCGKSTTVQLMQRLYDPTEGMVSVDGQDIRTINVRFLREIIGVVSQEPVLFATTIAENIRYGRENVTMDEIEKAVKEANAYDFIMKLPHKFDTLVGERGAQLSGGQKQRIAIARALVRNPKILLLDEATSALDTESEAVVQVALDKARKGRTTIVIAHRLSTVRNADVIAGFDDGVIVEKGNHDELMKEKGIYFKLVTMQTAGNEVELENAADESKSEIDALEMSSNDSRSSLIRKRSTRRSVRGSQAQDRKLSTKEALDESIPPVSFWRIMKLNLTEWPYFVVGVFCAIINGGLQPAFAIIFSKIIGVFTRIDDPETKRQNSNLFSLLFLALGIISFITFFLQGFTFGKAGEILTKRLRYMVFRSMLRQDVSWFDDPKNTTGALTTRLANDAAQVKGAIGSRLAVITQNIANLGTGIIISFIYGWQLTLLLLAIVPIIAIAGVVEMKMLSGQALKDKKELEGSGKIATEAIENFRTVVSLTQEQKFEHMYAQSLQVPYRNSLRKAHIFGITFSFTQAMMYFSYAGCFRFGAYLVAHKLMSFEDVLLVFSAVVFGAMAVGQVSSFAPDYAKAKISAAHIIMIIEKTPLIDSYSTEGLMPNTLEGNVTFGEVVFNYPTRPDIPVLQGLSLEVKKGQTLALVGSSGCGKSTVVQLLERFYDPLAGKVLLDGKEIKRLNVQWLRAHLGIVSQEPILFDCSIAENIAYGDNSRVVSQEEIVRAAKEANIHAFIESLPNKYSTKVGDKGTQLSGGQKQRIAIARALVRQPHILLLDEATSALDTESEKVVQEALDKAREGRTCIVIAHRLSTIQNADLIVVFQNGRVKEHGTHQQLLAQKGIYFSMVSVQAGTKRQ

In the case of `COc1cc2c(cc1OC)CN(CCCN1Cc3cc(OC)c4c(c3-c3c(cc(OC)c5c3OCO5)C1)OCO4)CC2`, in the data set with K562/A02 [1], the concentration for half-maximal inhibition (IC50) (as a rule, the concentration needed to halve the response being measured) came out at 16.6 µM. In addition, the “Ratio IC50” value with K562/A02 [2] was determined as 2.01.

Turning to `COc1cc2c(c3c1OCO3)-c1c(cc(OC)c3c1OCO3)CN(c1ccc(CCN3CCOCC3)cc1)C2`, the IC50 in the data set with K562/A02 [1] was 6.57 µM. The “Ratio IC50” value in the data set on K562/A02 [2] amounted to 16.7.

Regarding `COc1ccc2c(c1)CCN(CCCN1Cc3cc(OC)c4c(c3-c3c(cc(OC)c5c3OCO5)C1)OCO4)C2`, the “Ratio IC50” value in the data set on K562/A02 [3] is reported as 1.67. The 50% inhibitory concentration (IC50) in the data set on K562/A02 [1] came to 5.31 µM.

Regarding `COc1cc2c(cc1OC)CN(CCc1ccccc1N1Cc3cc(OC)c4c(c3-c3c(cc(OC)c5c3OCO5)C1)OCO4)CC2`, the IC50 with K562/A02 [1] was more than 100 µM. In addition, in the data set with K562/A02 [2], the “Ratio IC50” value was determined as 0.85.

For `COc1cccc2c1C(=O)c1c(O)c3c(c(O)c1C2=O)C[C@@](O)(C(=O)CO)C[C@@H]3O[C@H]1C[C@H](N)[C@H](O)[C@H](C)O1.Cl` [DOXORUBICIN HYDROCHLORIDE], the concentration for half-maximal inhibition (IC50) with K562 [4] amounted to 0.001 µM; in the data set on K562/A02 [1] it was 2.4 µM. In addition, the Activity in the data set with K562/A02 [5] came out at 526.45 mm3.

Turning to `COc1cc2c(c3c1OCO3)-c1c(cc(OC)c3c1OCO3)CN(c1ccc(CN3CCCCC3)cc1)C2`, the “Ratio IC50” value in the data set with K562/A02 [3] was 21.82; with K562/A02 [2] it was 113.14. Besides, in the data set on K562/A02 [1], the half-maximal inhibitory concentration (IC50) was found to be 19.3 µM.

As to `COc1cc2c(c3c1OCO3)-c1c(cc(OC)c3c1OCO3)CN(CCc1ccc3c(c1)OCO3)C2`, in the data set with K562/A02 [6], the EC50 – broadly, the concentration needed to bring the measured effect to its halfway point – was determined as 0.122 µM. For the same compound, the “Ratio IC50” value in the data set with K562/A02 [3] was 12.78; with K562/A02 [2] it was 20.58.

In the case of `COc1cc2c(cc1OC)CN(CCCCCCN1Cc3cc(OC)c4c(c3-c3c(cc(OC)c5c3OCO5)C1)OCO4)CC2`, the “Ratio IC50” value with K562/A02 [3] was 8.24. In the data set with K562/A02 [1], the IC50 is 2.04 µM.

Regarding `COc1ccc2c(c1)CCN(CCN1Cc3cc(OC)c4c(c3-c3c(cc(OC)c5c3OCO5)C1)OCO4)C2`, the “Ratio IC50” value in the data set with K562/A02 [3] is recorded as 4.87. In addition, the IC50 with K562/A02 [1] worked out at 5.1 µM.

`COc1cc2c(cc1OC)CN(CCN1Cc3cc(OC)c4c(c3-c3c(cc(OC)c5c3OCO5)C1)OCO4)CC2`: the IC50 with K562/A02 [1] came out at 7.78 µM. The “Ratio IC50” value in the data set with K562/A02 [2] is 4.29.

In the case of `COc1ccc2c(c1)CCN(CCCCCCN1Cc3cc(OC)c4c(c3-c3c(cc(OC)c5c3OCO5)C1)OCO4)C2`, in the data set with K562/A02 [1], the half-inhibitory concentration (IC50) was more than 100 µM. Also, in the data set on K562/A02 [2], the “Ratio IC50” value came to 4.23.

Regarding `COc1cc2c(cc1OC)CN(CCc1ccc(N3Cc4cc(OC)c5c(c4-c4c(cc(OC)c6c4OCO6)C3)OCO5)cc1)CC2`, in the data set on K562/A02 [6], the 50% effective concentration (EC50) stood at 0.0487 µM. In addition, the Activity result in the data set on K562/A02 [7] is “Dose-Dependent Effect”; with K562/A02 [10], 525.75 mm3; in the data set on K562/A02 [11], 158.27 mm3; in data set [12], “Active”. The outcome in the data set on K562 [8] and in the data set with K562/A02 [9] was Active. The “Ratio IC50” value in the data set on K562/A02 [3] and in the data set on K562/A02 [2] was 93.17 in each case. Further, the IC50 was found to be 95.4 µM with K562/A02 [1] and 2.61 µM on Cytochrome P450 3A4. In addition, the outcome in the data set on K562/A02 [13] was inactive.

`COc1ccc2c(c1)CCN(CCc1ccc(N3Cc4cc(OC)c5c(c4-c4c(cc(OC)c6c4OCO6)C3)OCO5)cc1)C2`: the IC50 in the data set on K562/A02 [1] was more than 100 µM. Moreover, in the data set on K562/A02 [2], the “Ratio IC50” value is listed as 8.61.

With `COc1ccc(C(=O)Nc2ccccc2C(=O)Nc2ccc(CCN3CCc4cc(OC)c(OC)cc4C3)cc2)cc1OC`, the EC50 with K562/A02 [6] was found to be 0.0303 µM. The IC50 in the data set on K562/A02 [1] was found to be 9.08 µM. Also, the “Ratio IC50” value in the data set on K562/A02 [2] was 81.9.

As for `COc1cc2c(c3c1OCO3)-c1c(cc(OC)c3c1OCO3)CN(c1ccc(CCN3CCNCC3)cc1)C2`, in the data set on K562/A02 [3], the “Ratio IC50” value turned out to be 14.23. In the data set with K562/A02 [1], the IC50 stood at 4.63 µM.

Take `COc1cc2c(c3c1OCO3)-c1c(cc(OC)c3c1OCO3)CN(c1ccc(CCN3CCCCC3)cc1)C2`: the “Ratio IC50” value in the data set with K562/A02 [3] is 12.52. The IC50 in the data set on K562/A02 [1] is 3.21 µM.

In the case of `COc1cc2c(cc1OC)CN(Cc1ccc(N3Cc4cc(OC)c5c(c4-c4c(cc(OC)c6c4OCO6)C3)OCO5)cc1)CC2`, the entries for the “Ratio IC50” value in the data set with K562/A02 [3] and with K562/A02 [2] were 46.82 and 374.09, respectively. For the same compound, the IC50 in the data set with K562/A02 [1] was found to be 13.6 µM.
